Source: ChEMBL document CHEMBL3885861, “Open TG-GATES”

Species: Rattus norvegicus
Experiment: Open TG-GATES - Regimen: Single
Assay type: toxicity, organism-based, Sprague-Dawley
Design: regimen Single, gender Male, age 6 weeks
Settings: in vivo, po, 300 mg/kg, route gavage, dose level Low; for APTT / Bas / Eos / Fbg / Hb / Ht / Lym / MCH / MCHC / MCV / Mono / Neu / PT / Plat / RBC / Ret / WBC: tissue Blood; for KIDNEY_L / KIDNEY_R / KIDNEY_TOTAL: tissue Kidney; for LIVER: tissue Liver; for A/G / ALP / ALT / AST / BUN / CRE / Ca / Cl / DBIL / GLC / IP / K / LDH / Na / PL / RALB / TBIL / TC / TG / TP / gamma-GTP: tissue Plasma

For `COc1ccc(O)c(C(C)(C)C)c1.COc1ccc(O)cc1C(C)(C)C` [BUTYLATED HYDROXYANISOLE], the TERMINAL_BW (3 h) was 204.6 g, the APTT (3 h) was 16.4 s and the Bas (3 h) was 0.2%. For the same compound, the Eos (3 h) was 0.6%, the Fbg (3 h) was 281.2 mg/dL and the Hb (3 h) was 13.8 g/dL. For the same compound, the Ht (3 h) was 39.9%, the Lym (3 h) was 75% and the MCH (3 h) was 21.7 pg. It also gave an MCHC (3 h) of 34.5%, an MCV (3 h) of 63.1 fL and a Mono (3 h) of 2.5%. For the same compound, the Neu (3 h) was 20.7%, the PT (3 h) was 12 s and the Plat (3 h) was 133.9 x10_4/uL. The RBC (3 h) was 633.4 x10_4/ul, the Ret (3 h) was 8.1% and the WBC (3 h) was 97.5 x10_2/uL. It also gave a KIDNEY_L (3 h) of 0.9 g, a KIDNEY_R (3 h) of 0.9 g and a KIDNEY_TOTAL (3 h) of 1.8 g. The LIVER (3 h) was 8.5 g, the A/G (3 h) was 0.8 and the ALP (3 h) was 1752.8 IU/L. The ALT (3 h) was 41.8 IU/L, the AST (3 h) was 75.4 IU/L and the BUN (3 h) was 10.2 mg/dL. For the same compound, the CRE (3 h) was 0.2 mg/dL, the Ca (3 h) was 11.3 mg/dL and the Cl (3 h) was 107.8 meq/L. It also gave a DBIL (3 h) of 0.052 mg/dL, a GLC (3 h) of 173.2 mg/dL and an IP (3 h) of 9.1 mg/dL. For the same compound, the K (3 h) was 3.9 meq/L, the LDH (3 h) was 75.6 IU/L and the Na (3 h) was 141.8 meq/L. For the same compound, the PL (3 h) was 154.4 mg/dL, the RALB (3 h) was 2.7 g/dL and the TBIL (3 h) was 0.082 mg/dL. For the same compound, the TC (3 h) was 80.8 mg/dL, the TG (3 h) was 149.4 mg/dL and the TP (3 h) was 5.8 g/dL. The gamma-GTP (3 h) was 1 IU/L, the TERMINAL_BW (6 h) was 202.1 g and the APTT (6 h) was 16.2 s. It also gave a Bas (6 h) of 0.2%, an Eos (6 h) of 0.7% and a Fbg (6 h) of 257.2 mg/dL. The Hb (6 h) was 13.3 g/dL, the Ht (6 h) was 39.1% and the Lym (6 h) was 72%. For the same compound, the MCH (6 h) was 21.2 pg, the MCHC (6 h) was 33.9% and the MCV (6 h) was 62.4 fL. For the same compound, the Mono (6 h) was 2.5%, the Neu (6 h) was 23.7% and the PT (6 h) was 12.3 s. It also gave a Plat (6 h) of 131.2 x10_4/uL, an RBC (6 h) of 627.4 x10_4/ul and a Ret (6 h) of 7.7%. For the same compound, the WBC (6 h) was 91.5 x10_2/uL, the KIDNEY_L (6 h) was 0.9 g and the KIDNEY_R (6 h) was 0.9 g. For the same compound, the KIDNEY_TOTAL (6 h) was 1.8 g, the LIVER (6 h) was 7.9 g and the A/G (6 h) was 0.9. It also gave an ALP (6 h) of 1829.2 IU/L, an ALT (6 h) of 38 IU/L and an AST (6 h) of 72.8 IU/L. The BUN (6 h) was 9.4 mg/dL, the CRE (6 h) was 0.2 mg/dL and the Ca (6 h) was 11.1 mg/dL. The Cl (6 h) was 107.8 meq/L, the DBIL (6 h) was 0.03 mg/dL and the GLC (6 h) was 172.4 mg/dL. For the same compound, the IP (6 h) was 10.3 mg/dL, the K (6 h) was 4.2 meq/L and the LDH (6 h) was 60.2 IU/L. For the same compound, the Na (6 h) was 143.2 meq/L, the PL (6 h) was 134.4 mg/dL and the RALB (6 h) was 2.6 g/dL. The TBIL (6 h) was 0.074 mg/dL, the TC (6 h) was 75 mg/dL and the TG (6 h) was 65.8 mg/dL. The TP (6 h) was 5.7 g/dL, the gamma-GTP (6 h) was 1.4 IU/L and the TERMINAL_BW (9 h) was 199.4 g. The APTT (9 h) was 16.9 s, the Bas (9 h) was 0.2% and the Eos (9 h) was 0.7%. For the same compound, the Fbg (9 h) was 273.6 mg/dL, the Hb (9 h) was 13.4 g/dL and the Ht (9 h) was 39.1%. The Lym (9 h) was 76.3%, the MCH (9 h) was 20.7 pg and the MCHC (9 h) was 34.3%. The MCV (9 h) was 60.5 fL, the Mono (9 h) was 1.9% and the Neu (9 h) was 20.1%. It also gave a PT (9 h) of 13.1 s, a Plat (9 h) of 145.3 x10_4/uL and an RBC (9 h) of 647.4 x10_4/ul. For the same compound, the Ret (9 h) was 7.4%, the WBC (9 h) was 69.4 x10_2/uL and the KIDNEY_L (9 h) was 0.9 g. For the same compound, the KIDNEY_R (9 h) was 0.9 g, the KIDNEY_TOTAL (9 h) was 1.7 g and the LIVER (9 h) was 7.5 g. It also gave an A/G (9 h) of 0.8, an ALP (9 h) of 1688.6 IU/L and an ALT (9 h) of 30.6 IU/L. The AST (9 h) was 66.4 IU/L, the BUN (9 h) was 8.2 mg/dL and the CRE (9 h) was 0.2 mg/dL. For the same compound, the Ca (9 h) was 10.8 mg/dL, the Cl (9 h) was 108 meq/L and the DBIL (9 h) was 0.026 mg/dL. The GLC (9 h) was 163.8 mg/dL, the IP (9 h) was 10.1 mg/dL and the K (9 h) was 4 meq/L. For the same compound, the LDH (9 h) was 48.4 IU/L, the Na (9 h) was 142.8 meq/L and the PL (9 h) was 134.6 mg/dL. For the same compound, the RALB (9 h) was 2.6 g/dL, the TBIL (9 h) was 0.088 mg/dL and the TC (9 h) was 77.4 mg/dL. The TG (9 h) was 66 mg/dL, the TP (9 h) was 5.6 g/dL and the gamma-GTP (9 h) was 1.4 IU/L. For the same compound, the TERMINAL_BW (24 h) was 215.1 g, the APTT (24 h) was 15.4 s and the Bas (24 h) was 0.3%. For the same compound, the Eos (24 h) was 0.7%, the Fbg (24 h) was 256.6 mg/dL and the Hb (24 h) was 13 g/dL. The Ht (24 h) was 38%, the Lym (24 h) was 82.1% and the MCH (24 h) was 21.3 pg. The MCHC (24 h) was 34.1%, the MCV (24 h) was 62.3 fL and the Mono (24 h) was 2.3%. It also gave a Neu (24 h) of 13.9%, a PT (24 h) of 12 s and a Plat (24 h) of 142.8 x10_4/uL. It also gave an RBC (24 h) of 610.6 x10_4/ul, a Ret (24 h) of 6.9% and a WBC (24 h) of 97.1 x10_2/uL. The KIDNEY_L (24 h) was 0.9 g, the KIDNEY_R (24 h) was 0.9 g and the KIDNEY_TOTAL (24 h) was 1.8 g. For the same compound, the LIVER (24 h) was 9.6 g, the A/G (24 h) was 0.9 and the ALP (24 h) was 1667 IU/L. The ALT (24 h) was 47.2 IU/L, the AST (24 h) was 79 IU/L and the BUN (24 h) was 15 mg/dL. For the same compound, the CRE (24 h) was 0.2 mg/dL, the Ca (24 h) was 11.4 mg/dL and the Cl (24 h) was 106.4 meq/L. It also gave a DBIL (24 h) of 0.028 mg/dL, a GLC (24 h) of 166.4 mg/dL and an IP (24 h) of 7.8 mg/dL. It also gave a K (24 h) of 4.2 meq/L, an LDH (24 h) of 63 IU/L and a Na (24 h) of 143.2 meq/L. For the same compound, the PL (24 h) was 135.2 mg/dL, the RALB (24 h) was 2.7 g/dL and the TBIL (24 h) was 0.078 mg/dL. The TC (24 h) was 78.2 mg/dL, the TG (24 h) was 110.2 mg/dL and the TP (24 h) was 5.7 g/dL. The gamma-GTP (24 h) was 1 IU/L.
